pIC50: −log10 of the molar value.
Key:
Type in all cases: cell-based
[1] = system: K-562 (chronic myeloid leukemia); assay: CCK8 growth inhibition of leukemia cells, K-562; conditions: for pIC50: Homo sapiens, K562, 48 h, read-out: IC50 K562
Method: (§1) Example 6: CCK8 Method to Detect the Growth Inhibitory Effect of Gossypol Isocyanate Ester Compounds on Three Kinds of Leukemia Cells
(§2) Cell lines: Jurkat (acute T-cell leukemia), HL-60 (human promyelocytic leukemia cells), K-562 (chronic myeloid leukemia), provided by the Affiliated Hospital of Guangdong Medical College. The cells were cultured in RPMI1640 medium containing 10% fetal bovine serum, penicillin […], streptomycin 100 mg/L, 37° C., 5% CO2, saturated humidity incubator, and the logarithmic growth phase cells were tested.
(§3) Test method: The logarithmic growth phase leukemia cell lines were taken, counted, and inoculated on a 96-well culture plate at a density of 1×10^5/mL, 100 μL per well. After 24 hours of cultivation, 100 μL of double-concentration medium containing different concentrations of compounds was added to each well. The medium containing the highest concentration of DMSO was used as the solvent control. After 48 hours of drug action, 20 μL of CCK8 color developing solution was added to each well, and the color was developed at 37° C. The OD450 was measured with a microplate reader until the absorbance was about 1.5. The inhibition rate was calculated using the formula: Inhibition Rate (%)=(1−Absorbance Value of Administration Group/Absorbance Value of Control Group)×100%
(§4) The half-inhibitory concentration of cells (IC50) was calculated by the Kou's method.

[2] = system: HL-60 (human promyelocytic leukemia cells); assay: CCK8 growth inhibition of leukemia cells, HL-60; conditions: for pIC50: Homo sapiens, HL-60, 48 h, read-out: IC50 HL-60
Method: as §1, §2, §3, §4

[3] = system: Jurkat (acute T-cell leukemia); assay: CCK8 growth inhibition of leukemia cells, Jurkat; conditions: for pIC50: Homo sapiens, Jurkat, 48 h, read-out: IC50 Jurkat
Method: as §1, §2, §3, §4

SMILES: Cc1cc2c(c(O)c1-c1c(C)cc3c(c1O)/C(=C/OC(=O)Nc1ccccc1)C(=O)C(O)=C3C(C)C)/C(=C/OC(=O)Nc1ccccc1)C(=O)C(O)=C2C(C)C [Compound 1, (1Z,1′Z)-(1,1′,6,6′-tetrahydroxy-5,5′-diisopropyl-3,3′-dimethyl-7,7′-dioxo-[2,2′-binaphthal-ene]-8,8′(7H,7′H)-diylidene)bis(methanylylidene) bis(phenylcarbamate)]
- pIC50 [1]: 4.43
- pIC50 [2]: 4.50
- pIC50 [3]: 4.74

SMILES: CCNC(=O)O/C=C1\C(=O)C(O)=C(C(C)C)c2cc(C)c(-c3c(C)cc4c(c3O)/C(=C/OC(=O)NCC)C(=O)C(O)=C4C(C)C)c(O)c21 [Compound 2, (1Z,1′Z)-(1,1′,6,6′-tetrahydroxy-5,5′-diisopropyl-3,3′-dimethyl-7,7′-dioxo-[2,2′-binaphtha-lene]-8,8′(7H,7′H)-diylidene)bis(methanylylidene) bis(ethylcarbamate)]
- pIC50 [1]: 4.31
- pIC50 [2]: 4.04
- pIC50 [3]: 4.17

SMILES: Cc1cc2c(c(O)c1-c1c(C)cc3c(c1O)/C(=C/OC(=O)Nc1ccc(N)cc1)C(=O)C(O)=C3C(C)C)/C(=C/OC(=O)Nc1ccc(N)cc1)C(=O)C(O)=C2C(C)C [Compound 3, ((8Z,8′Z)-1,1′,6,6′-tetrahydroxy-5,5′-diisopropyl-3,3′-dimethyl-7,7′-dioxo-[2,2′-binaphthalene]-8,8′(7H,7′H)-diylidene)bis(methaneylylidene) bis((4-aminophenyl)carbamate)]
- pIC50 [1]: 4.79
- anti-leukemia activity (in words) ([1]; K562 cells, CCK8): active
- anti-leukemia activity (in words) ([2]; HL-60 cells, CCK8): active
- pIC50 [2]: 4.57
- pIC50 [3]: 4.89
- anti-leukemia activity (in words) ([3]; Jurkat cells, CCK8): active

SMILES: Cc1cc2c(c(O)c1-c1c(C)cc3c(c1O)/C(=C/OC(=O)Nc1cccc4c(N)cccc14)C(=O)C(O)=C3C(C)C)/C(=C/OC(=O)Nc1cccc3c(N)cccc13)C(=O)C(O)=C2C(C)C [Compound 4, ((8Z,8′Z)-1,1′,6,6′-tetrahydroxy-5,5′-diisopropyl-3,3′-dimethyl-7,7′-dioxo-[2,2′-binaphthalene]-8,8′(7H,7′H)-diylidene)bis(methaneylylidene) bis((5-aminonaphthalen-1-yl)carbamate)]
- pIC50 [1]: 4.66
- pIC50 [2]: 4.80
- pIC50 [3]: 4.66

SMILES: Cc1cc(-c2ccc(NC(=O)O/C=C3\C(=O)C(O)=C(C(C)C)c4cc(C)c(-c5c(C)cc6c(c5O)/C(=C/OC(=O)Nc5ccc(-c7ccc(N)c(C)c7)cc5C)C(=O)C(O)=C6C(C)C)c(O)c43)c(C)c2)ccc1N [Compound 5, ((8Z,8′)-1,1′,6,6′-tetrahydroxy-5,5′-diisopropyl-3,3′-dimethyl-7,7′-dioxo-[2,2′-binaphthalene]-8,8′(7H,7′H)-diylidene)bis(methaneylylidene) bis((4′-amino-3,3′-dimethyl-[1,1′-biphenyl]-4-yl)carbamate)]
- pIC50 [1]: 4.31
- pIC50 [2]: 4.55
- pIC50 [3]: 4.49

Reference: patent US10858312B1, “Gossypol isocyanate ester compounds with antileukemic activities and a method of preparing the same” (SHAANXI PANLONG PHARMACEUTICAL GROUP LIMITED BY SHARE LTD., priority 2020, dated 2020)
